What was measured:
[1] = tested on: lung tissue cytokines and neutrophil infiltration; assay: Animal models of acute pancreatitis (AP) and lung injury; format: in vivo
From the text: (§1) Preclinical data supports the use of CRAC inhibitors (e.g. N-(5-(6-Chloro-2,2-difluorobenzo[d][1,3]dioxol-5-yl)pyrazin-2-yl)-2-fluoro-6-methylbenzamide, Compound 1) in severe COVID-19 pneumonia.

[2] = tested on: patients with AP and accompanying SIRS plus hypoxemia; assay: Clinical and pharmacodynamic study in patients with acute pancreatitis, SIRS and hypoxemia; conditions: human, in vivo
[3] = biological target: CRAC channels (Homo sapiens, UniProt Q96D31); assay: CRAC channel inhibition
CRAC channels, sequence (Q96D31 whole entry): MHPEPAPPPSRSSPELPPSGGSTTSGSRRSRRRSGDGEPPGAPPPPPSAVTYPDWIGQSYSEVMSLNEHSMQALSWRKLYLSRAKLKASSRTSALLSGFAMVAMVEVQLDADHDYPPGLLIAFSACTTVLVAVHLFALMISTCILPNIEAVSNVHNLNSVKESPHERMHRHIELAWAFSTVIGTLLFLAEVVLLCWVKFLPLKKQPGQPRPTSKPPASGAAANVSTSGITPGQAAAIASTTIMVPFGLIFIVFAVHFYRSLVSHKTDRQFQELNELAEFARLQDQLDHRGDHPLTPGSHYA

[4] = tested on: human lymphocytes; assay: In vitro cytokine release in human lymphocytes; format: cell-based
From the text: as §1

With `Cc1cccc(F)c1C(=O)Nc1cnc(-c2cc3c(cc2Cl)OC(F)(F)O3)cn1` [Compound 1, N-(5-(6-Chloro-2,2-difluorobenzo[d][1,3]dioxol-5-yl)pyrazin-2-yl)-2-fluoro-6-methylbenzamide] the “Cytokines and neutrophil infiltration in lung tissue” value [1] was “inhibit cytokines and neutrophil infiltration in lung tissue”, the “IL-6 levels in patients” value [2] was “marked reduction in IL-6 levels” and the “Respiratory dysfunction in patients” value [2] was “beneficial effects on respiratory dysfunction”. For the same compound, the “Inhibition of CRAC channels” value [3] was “potent and selective” and the “Release of multiple cytokines” value [4] was “inhibits release of multiple cytokines”.

From patent US20250120969A1, “METHODS AND COMPOSITIONS FOR TREATING INFLAMMATION INJURY IN THE LUNGS” (CalciMedica, Inc., priority 2022, published 2025)
